We go through 36 molecules from ChEMBL document CHEMBL1148830, “Discovery and investigation of antiproliferative and apoptosis-inducing properties of new heterocyclic podophyllotoxin analogues accessible by a one-step multicomponent synthesis” (2007).

Activity calls are given as the source filed them. The rule behind the calls is not given here.

The test system of assay [1] is Jurkat. As to the kind of experiment: Antiproliferative activity against human Jurkat cells assessed as cell viability at 5 uM after 48 hrs by MTT assay. It counts as functional. The following applies: read-out: Activity. (In general: Formazan colour is commonly taken as a measure of viable cells.)
For assay [2], the system named is Jurkat. As to the kind of experiment: Induction of apoptosis in Jurkat cells assessed as cell viability at 5 uM after 48 hrs by flow cytometry Annexin-V/propidium iodide assay. Type of assay: functional. The following applies: Homo sapiens, read-out: Activity. On the technique in general: A flow cytometer gives signals particle by particle.
For assay [3], the system named is HeLa. As to the kind of experiment: Antiproliferative activity against HeLa cells assessed as cell viability at 5 uM after 48 hrs by MTT assay relative to control. The following applies: Homo sapiens, read-out: Activity. Type of assay: functional.
A short description of assay [4]: Antiproliferative activity against human MCF7/AZ cells assessed as cell viability at 5 uM after 48 hrs by MTT assay relative to control. Type of assay: functional. The following applies: read-out: Activity.
Assay [5] deals with HeLa. As to the kind of experiment: Growth inhibition of HeLa cells after 48 hrs by MTT assay. Type of assay: functional. The following applies: Homo sapiens.
The subject of a further assay is Lymphocyte. As to the kind of experiment: Induction of apoptosis in human whole blood lymphocytes after 24 hrs by flow cytometric Annexin-V/propidium iodide assay. Type of assay: functional, cell-based.
Assay [6] concerns Jurkat. As to the kind of experiment: Increase in caspase 3 activation in Jurkat cells at 5 uM. It counts as functional, Homo sapiens.
Assay [7] relates to Jurkat. As to the kind of experiment: Induction of apoptosis in Jurkat cells after 24 hrs by flow cytometric Annexin-V/propidium iodide assay. It counts as functional, cell-based. The following applies: Homo sapiens.
In assay [8] the test system is Jurkat. As to the kind of experiment: Effect on apoptosis in Jurkat cells assessed as cleavage of PARP at 5 uM. It counts as functional, cell-based. The following applies: Homo sapiens.

Regarding `Cc1n[nH]c2c1C(c1ccncc1)C1=C(COC1=O)N2` (stereo not given), the viability at 5 µM came to 92% in the assay with Jurkat [1], 4% in the assay on Jurkat [2], 94% in the assay with HeLa [3] and 100% in assay [4].

For `Cc1n[nH]c2c1C(c1ccsc1)C1=C(COC1=O)N2` (stereo not given), the viability at 5 µM amounted to 82% with Jurkat [1], 6% in the assay with Jurkat [2], 98% with HeLa [3] and 100% in assay [4].

Regarding `COc1cc2c(c(OC)c1)C(c1cc(OC)c(OC)c(OC)c1)C1=C(COC1=O)N2` (stereo not given), the viability at 5 µM with Jurkat [1] was determined as 55%; in the assay with Jurkat [2], 55%; in the assay on HeLa [3], 55%; in [4], 43%.

As to `Cc1n[nH]c2c1C(c1ccccc1)C1=C(COC1=O)N2` (stereo not given), the viability at 5 µM with Jurkat [1] is 87%; in the assay with Jurkat [2] it was 10%; in the assay on HeLa [3], 74%; in assay [4], 84%.

With `Cc1n[nH]c2c1C(c1cccnc1)C1=C(COC1=O)N2` (stereo not given), the viability at 5 µM is 88% in the assay with Jurkat [1], 11% in the assay on Jurkat [2], 69% with HeLa [3] and 96% in [4].

With `Cc1n[nH]c2c1C(C)C1=C(COC1=O)N2` (stereo not given), the viability at 5 µM with Jurkat [1] came out at 78%; in the assay with Jurkat [2] it was 5%; in the assay with HeLa [3], 70%; in [4] it was 97%.

Turning to `Cc1n[nH]c2c1C(c1cc(Br)c(O)c(Br)c1)C1=C(COC1=O)N2` (stereo not given), the viability at 5 µM is 58% in the assay on Jurkat [1], 53% in the assay with Jurkat [2], 58% in the assay on HeLa [3] and 60% in [4]. Also, in the assay with HeLa [5], the GI50 is 8 µM. Also, the outcome with Lymphocyte was inactive. The molecule further registered a Fold change with Jurkat [6] of 3.

With `COc1ccc(C2C3=C(COC3=O)Nc3[nH]nc(C)c32)cc1OC` (stereo not given), the viability at 5 µM in the assay on Jurkat [1] turned out to be 88%; with Jurkat [2], 5%; in the assay on HeLa [3], 73%; in [4], 95%.

Take `Cc1nc2ccccc2nc1C1C2=C(COC2=O)Nc2[nH]nc(C)c21` (stereo not given): the viability at 5 µM with Jurkat [1] turned out to be 97%; in the assay with Jurkat [2] it was 11%; with HeLa [3] it was 72%; in assay [4], 100%.

Regarding `COc1cc(C2C3=C(COC3=O)Nc3[nH]nc(C)c32)cc([N+](=O)[O-])c1O` (stereo not given), the viability at 5 µM with Jurkat [1] came to 90%; in the assay on Jurkat [2] it was 5%; in the assay on HeLa [3], 78%; in assay [4], 89%.

On to `Cc1n[nH]c2c1C(c1c(C)nn(-c3ccccc3)c1Cl)C1=C(COC1=O)N2` (stereo not given), for which the viability at 5 µM in the assay with Jurkat [1] came to 94%; in the assay with Jurkat [2] it was 6%; in the assay with HeLa [3], 58%; in assay [4], 100%.

Turning to `Cc1n[nH]c2c1C(c1cccc(Br)c1)C1=C(COC1=O)N2` (stereo not given), the viability at 5 µM in the assay on Jurkat [1] turned out to be 68%; in the assay with Jurkat [2], 58%; in the assay with HeLa [3] it was 51%; in [4] it was 63%. In the assay on HeLa [5], growth was halved (GI50) at 5 µM. The result in the assay on Jurkat [7] was Active. For the same molecule, the result with Lymphocyte was inactive. The same molecule yielded a Fold change in the assay with Jurkat [6] of 3.

Turning to `COc1cc(C2C3=C(COC3=O)Nc3c2c(C)nn3C(C)C)cc(OC)c1OC` (stereo not given), the viability at 5 µM in the assay with Jurkat [1] was determined as 77%; in the assay on Jurkat [2], 4%; in the assay on HeLa [3] it was 83%; in assay [4] it was 99%.

For the molecule `Cc1n[nH]c2c1C(c1cccs1)C1=C(COC1=O)N2` (stereo not given), the viability at 5 µM was 74% with Jurkat [1], 18% in the assay on Jurkat [2], 82% with HeLa [3] and 98% in [4].

For the molecule `COc1cc(C2C3=C(COC3=O)Nc3c2c(-c2ccc(Br)cc2)nn3-c2ccccc2)cc(OC)c1OC` (stereo not given), the viability at 5 µM with Jurkat [1] is 99%; in the assay on Jurkat [2], 2%; in the assay on HeLa [3] it was 73%; in assay [4], 90%.

Consider `COc1ccc(C2C3=C(COC3=O)Nc3[nH]nc(C)c32)cc1` (stereo not given), for which the viability at 5 µM worked out at 94% with Jurkat [1], 11% with Jurkat [2], 73% with HeLa [3] and 82% in assay [4].

`CCOc1c(Br)cc(C2C3=C(COC3=O)Nc3[nH]nc(C)c32)cc1OC` (stereo not given): the viability at 5 µM in the assay with Jurkat [1] came to 28%; with Jurkat [2], 49%; with HeLa [3] it was 52%; in [4], 49%. In addition, in the assay on HeLa [5], growth was halved (GI50) at 5 µM. The outcome in the assay with Lymphocyte was inactive. The molecule further yielded a Fold change in the assay on Jurkat [6] of 3.

On to `Cc1n[nH]c2c1C(c1ccccc1[N+](=O)[O-])C1=C(COC1=O)N2` (stereo not given), for which the viability at 5 µM stood at 64% with Jurkat [1], 6% with Jurkat [2], 71% with HeLa [3] and 99% in assay [4].

`CSc1ccc(C2C3=C(COC3=O)Nc3[nH]nc(C)c32)cc1` (stereo not given): the viability at 5 µM turned out to be 87% in the assay on Jurkat [1], 14% in the assay with Jurkat [2], 45% in the assay on HeLa [3] and 95% in assay [4].

`COc1cc2c(cc1OC)C(c1cc(OC)c(OC)c(OC)c1)C1=C(O)OCC1=N2` (stereo not given): the viability at 5 µM in the assay with Jurkat [1] is 35%; with Jurkat [2] it was 49%; in the assay on HeLa [3], 53%; in assay [4], 58%. The molecule further registered a GI50 with HeLa [5] of 6 µM.

Take `Cc1n[nH]c2c1C(c1ccc(OC(F)(F)F)cc1)C1=C(COC1=O)N2` (stereo not given): the viability at 5 µM in the assay with Jurkat [1] was determined as 97%; in the assay on Jurkat [2] it was 9%; with HeLa [3] it was 97%; in [4] it was 84%.

Take `COc1cc(C2C3=C(COC3=O)Nc3c2c(C)nn3-c2ccc(C)cc2)cc(OC)c1OC` (stereo not given): the viability at 5 µM with Jurkat [1] came to 77%; with Jurkat [2] it was 23%; in the assay on HeLa [3] it was 77%; in assay [4], 71%.

Regarding `COc1cc2c(c(OC)c1OC)-c1ccc(OC)c(=O)cc1[C@@H](NC(C)=O)CC2`, the result in the assay with Jurkat [6] (Homo sapiens) was Active.

For `COc1cc(C2C3=C(COC3=O)Nc3cc4c(cc32)OCO4)cc(OC)c1OC` (stereo not given), the viability at 5 µM in the assay on Jurkat [1] was 54%; in the assay on Jurkat [2], 55%; with HeLa [3], 54%; in assay [4], 52%. This molecule also showed a GI50 in the assay with HeLa [5] of 6 µM.

With `COc1cc(C2C3=C(COC3=O)Nc3[nH]nc(C)c32)cc(Br)c1OC(C)=O` (stereo not given), the viability at 5 µM in the assay on Jurkat [1] was determined as 36%; in the assay on Jurkat [2], 58%; in the assay on HeLa [3], 47%; in assay [4], 46%. Halving of growth with HeLa [5] (GI50) required 4 µM. In the assay on Lymphocyte, the result was inactive. Further, the Fold change with Jurkat [6] is recorded as 3.

`COc1cc(C2C3=C(COC3=O)Nc3[nH]nc(C)c32)cc(Br)c1OC` (stereo not given): the viability at 5 µM in the assay with Jurkat [1] was found to be 29%; in the assay with Jurkat [2], 56%; in the assay on HeLa [3], 16%; in assay [4] it was 47%. In the assay on HeLa [5], this molecule gave a GI50 of 0.75 µM. In the assay with Lymphocyte, the outcome was inactive. In the assay on Jurkat [6], this molecule registered a Fold change of 3.

As for `COc1cc(C2C3=C(COC3=O)Nc3c2c(C)nn3C)cc(OC)c1OC` (stereo not given), the viability at 5 µM with Jurkat [1] was 79%; with Jurkat [2], 5%; in the assay with HeLa [3] it was 55%; in assay [4], 98%.

Turning to `Cc1n[nH]c2c1C(c1ccc(Br)cc1)C1=C(COC1=O)N2` (stereo not given), the viability at 5 µM with Jurkat [1] worked out at 90%; with Jurkat [2] it was 10%; in the assay with HeLa [3], 62%; in assay [4], 92%.

For `Cc1n[nH]c2c1C(c1cccc(F)c1)C1=C(COC1=O)N2` (stereo not given), the viability at 5 µM in the assay on Jurkat [1] came to 84%; in the assay with Jurkat [2] it was 28%; with HeLa [3], 99%; in [4], 76%.

On to `Cc1n[nH]c2c1C(c1ccc(N(C)C)c(Br)c1)C1=C(COC1=O)N2` (stereo not given), for which the viability at 5 µM with Jurkat [1] was 34%; with Jurkat [2] it was 41%; with HeLa [3], 55%; in assay [4], 59%. Besides, in the assay with HeLa [5], the GI50 is 6 µM. Also, the result in the assay with Lymphocyte was inactive. This molecule displayed a Fold change with Jurkat [6] of 3.

As for `Cc1n[nH]c2c1C(c1ccc(Cl)c(Cl)c1)C1=C(COC1=O)N2` (stereo not given), the viability at 5 µM is 71% with Jurkat [1], 33% in the assay on Jurkat [2], 88% with HeLa [3] and 56% in assay [4].

Take `COc1cc(C2C3=C(COC3=O)Nc3[nH]nc(-c4ccc(Br)cc4)c32)cc(OC)c1OC` (stereo not given): the viability at 5 µM with Jurkat [1] was 78%; in the assay with Jurkat [2], 5%; with HeLa [3] it was 67%; in assay [4] it was 98%.

In the case of `Cc1n[nH]c2c1C(c1c(C)nc3sccn13)C1=C(COC1=O)N2` (stereo not given), the viability at 5 µM stood at 85% in the assay with Jurkat [1], 7% in the assay with Jurkat [2], 84% with HeLa [3] and 100% in assay [4]. Besides, in the assay on Jurkat [8], the outcome was inactive.

For `Cc1n[nH]c2c1C(c1cccc(Cl)c1)C1=C(COC1=O)N2` (stereo not given), the viability at 5 µM with Jurkat [1] was determined as 76%; in the assay on Jurkat [2], 28%; with HeLa [3], 43%; in assay [4] it was 54%. The molecule further registered a GI50 with HeLa [5] of 10 µM. This molecule also registered a Fold change in the assay on Jurkat [6] of 3.

For `Cc1n[nH]c2c1C(c1ccccc1Br)C1=C(COC1=O)N2` (stereo not given), the viability at 5 µM stood at 90% in the assay on Jurkat [1], 8% in the assay with Jurkat [2], 57% with HeLa [3] and 100% in assay [4].

For the molecule `C=C(C)[C@@H]1CC=C(C2C3=C(COC3=O)Nc3[nH]nc(C)c32)CC1` (stereo not given in full), the viability at 5 µM in the assay with Jurkat [1] is 89%; in the assay with Jurkat [2], 14%; in the assay on HeLa [3] it was 95%; in assay [4], 91%.

What is called GI50 is the concentration at which growth is held to half of that of the control.
